Assay [1] concerns the target BRD4(1) (amino acids 44-168) (Homo sapiens (Human), UniProt O60885). The assay is described as follows: BRD4 binding strength, TR-FRET (HTRF) assay of BRD4(1) / acetylated histone H4 peptide interaction. The note with it: inhibition of BRD4(1)/Ac-H4 peptide interaction. An excerpt:
To assess the BRD4 binding strength of the compounds according to the invention, the ability thereof to inhibit the interaction between BRD4 and acetylated histone H4 in a dose-dependent manner was quantified. For this purpose, a time-resolved fluorescence resonance energy transfer (TR-FRET) assay was used, which measures the binding between N-terminally His6-tagged BRD4(1) (amino acids 44-168) and a synthetic acetylated histone H4 (Ac-H4) peptide with sequence […]-biotin. The recombinant BRD4 protein produced in-house according to Filippakopoulos et al., Cell, 2012, 149:214-231 was expressed in E. coli and purified by means of (Ni-NTA) affinity and (Sephadex G-75) size exclusion chromatography. The Ac-H4 peptide can be purchased, for example, from Biosyntan (Berlin, Germany). […] For this purpose, 100-fold concentrated solutions in DMSO were prepared by serial dilutions (1:3.4) of a 2 mM stock solution into a clear, 384-well microtitre plate (Greiner Bio-One, Frickenhausen, Germany). From this, 50 nl were transferred into a black test plate (Greiner Bio-One, Frickenhausen, Germany). […] This was followed by a 10-minute incubation step at 22° C. for the pre-equilibration of putative complexes between BRD4 and the substances. Subsequently, 3 μl of a solution of 1.67 times the concentration (in assay buffer) consisting of Ac-H4 peptide (83.5 nM) and TR-FRET detection reagents [16.7 nM anti-6His-XL665 and 3.34 nM streptavidin cryptate (both from Cisbio Bioassays, Codolet, France), and 668 mM potassium fluoride (KF)] were added. The mixture was then incubated in the dark at 22° C. for one hour and then at 4° C. overnight. The formation of BRD4/Ac-H4 complexes was determined by the measurement of the resonance energy transfer from the streptavidin-Eu cryptate to the anti-6His-XL665 antibody present in the reaction. […] The ratio of the emissions at 665 nm and at 622 nm was taken as an indicator of the amount of BRD4/Ac-H4 complexes formed.

A further assay deals with B16F10 cells. The assay is described as follows: Cell proliferation (alamarBlue), B16F10. The class given is cell-based. The following applies: Mus musculus, B16-F10; melanoma cell line, 96 hours incubation. The procedure: (§1) The ability of the compounds according to the invention to inhibit the proliferation of various cell lines was determined.
(§2) Cell viability was determined by means of the alamarBlue® reagent (Invitrogen). The cells were sown at different densities (MOLM-13, LAPC-4, MOLP-8 and MDA-MB-231: 4000 cells/well; B16F10: 400 cells/well) in 100 μl of growth medium on 96-well microtitre plates. After overnight incubation at 37° C., the fluorescence values (CI values) were determined. The plates were then treated with various substance dilutions and incubated at 37° C. for 96 hours (MOLM-13, MDA-MB-231 and B16F10 cells), 120 hours (MOLP-8 cells) or 168 hours (LAPC-4 cells). Subsequently, the fluorescence values were determined (CO values). For the data analysis, the CI values were subtracted from the CO values and the results were compared between cells which had been treated with various dilutions of the substance or only with buffer solution.
(§3) The compounds according to the invention were tested in the cell lines in Table 2, which represent the indications specified by way of example:
(§4) The indications corresponding to the different cell lines can be found in Table 2.
A general note: The colour change of resazurin is a common sign of viable cells or microbes.

Another assay concerns MOLM-13 cells. The assay is described as follows: Cell proliferation (alamarBlue), MOLM-13. Format: cell-based. The note with it: Homo sapiens, acute myeloid leukaemia cell line, 96 hours incubation. The method, then:
as §1, §2, §3, §4

For the next assay, the system named is LAPC-4 cells. The assay is described as follows: Cell proliferation (alamarBlue), LAPC-4. The class given is cell-based. The note with it: Homo sapiens, LAPC4; prostate carcinoma (androgen receptor-positive) cell line, 168 hours incubation. The method, then: as §1
as §2, with “values).” for “values). For the data analysis, the CI values were subtracted from the CO values and the results were compared between cells which had been treated with various dilutions of the substance or only with buffer solution.”
as §3, §4

For the next assay, the system named is MOLP-8 cells. The assay is described as follows: Cell proliferation (alamarBlue), MOLP-8. The class given is cell-based. The note with it: Homo sapiens, multiple myeloma cell line, 120 hours incubation. The procedure: as §1
as §2, with “values).” for “values). For the data analysis, the CI values were subtracted from the CO values and the results were compared between cells which had been treated with various dilutions of the substance or only with buffer solution.”
as §3, §4

Consider 18 compounds from patent publication US9663523B2, “BET protein-inhibiting 5-aryltriazoleazepines” (BAYER PHARMA AKTIENGESELLSCHAFT, priority 2012, dated 2017).

`CCOC(=O)CC1C=C(c2ccc(Cl)cc2)c2ccccc2-n2c(C)nnc21` (stereo in doubt) [Example 2, ethyl (−)-(4R)-[6-(4-chlorophenyl)-1-methyl-4H-[1,2,4]triazolo[4,3-a][1]benzazepin-4-yl]acetate]: the IC50 in assay [1] was 30 nM; in the assay with B16F10 cells, 100 nM; in the assay on MOLM-13 cells it was 120 nM; in the assay on LAPC-4 cells, 80 nM.

Consider `Cc1nnc2n1-c1ccccc1C(c1ccc(Cl)cc1)=CC2CC(=O)N1C2CCC1CC2` (stereo in doubt) [Example 6, (−)-1 (7-azabicyclo[2.2.1]hept-7-yl)-2-[(4R)-6-(4-chlorophenyl)-1-methyl-4H-[1,2,4]triazolo[4,3-a][1]benzazepin-4-yl]ethanone], for which the IC50 was 600 nM in assay [1], 1020 nM in the assay on B16F10 cells, 670 nM with MOLM-13 cells and 1060 nM with LAPC-4 cells.

On to `Cc1nnc2n1-c1ccccc1C(c1ccc(Cl)cc1)=CC2CC(=O)OC(C)(C)C` (stereo in doubt) [Example 9, tert-butyl (−)-[(4R)-6-(4-chlorophenyl)-1-methyl-4H-[1,2,4]triazolo[4,3-a][1]benzazepin-4-yl]acetate], for which the IC50 is 430 nM with B16F10 cells, 430 nM in the assay with MOLM-13 cells and 310 nM with LAPC-4 cells.

As to `Cc1nnc2n1-c1ccccc1C(c1cccc(Cl)c1)=CC2CC(=O)N1CC2(COC2)C1` (stereo in doubt) [Example 11, (−)-2-[(4R)-6-(3-chlorophenyl)-1-methyl-4H-[1,2,4]triazolo[4,3-a][1]benzazepin-4-yl]-1-(2-oxa-6-azaspiro[3.3]hept-6-yl)ethanone], the IC50 in assay [1] stood at 300 nM; in the assay on B16F10 cells, 9470 nM; with MOLM-13 cells, 4190 nM; in the assay with LAPC-4 cells it was 7890 nM.

Take `CC(=O)NNC(=O)CC1C=C(c2ccc(Cl)cc2)c2ccccc2-n2c(C)nnc21` (stereo in doubt) [Example 40, N′-acetyl-2-[(4R)-6-(4-chlorophenyl)-1-methyl-4H-[1,2,4]triazolo[4,3-a][1]benzazepin-4-yl]acetohydrazide]: the IC50 in assay [1] stood at 40 nM; in the assay with MOLM-13 cells, 170 nM; in the assay with MOLP-8 cells it was 80 nM.

In the case of `Cc1nnc2n1-c1ccccc1C(c1ccc(Cl)cc1)=CC2Cc1nnc(-c2cccnc2)o1` (stereo in doubt) [Example 45, (−)-(4R)-6-(4-chlorophenyl)-1-methyl-4-{[5-(pyridin-3-yl)-1,3,4-oxadiazol-2-yl]methyl}-4H-[1,2,4]triazolo[4,3-a][1]benzazepine], the IC50 amounted to 50 nM in assay [1], 60 nM in the assay on B16F10 cells and 100 nM in the assay with MOLM-13 cells.

In the case of `CCOC(=O)CC1C=C(c2ccc(Cl)cc2)c2ccccc2-n2c(C)nnc21` (centres unmarked) [Example 1, ethyl [6-(4-chlorophenyl)-1-methyl-4H-[1,2,4]triazolo[4,3-a][1]benzazepin-4-yl]acetate], the IC50 came to 180 nM in assay [1], 300 nM with B16F10 cells, 330 nM with MOLM-13 cells and 260 nM with LAPC-4 cells.

Take `Cc1nnc2n1-c1ccccc1C(c1ccc(Cl)cc1)=CC2CC(=O)N1CC2(COC2)C1` (centres unmarked) [Example 3, 2-[6-(4-chlorophenyl)-1-methyl-4H-[1,2,4]triazolo[4,3-a][1]benzazepin-4-yl]-1-(2-oxa-6-azaspiro[3.3]hept-6-yl)ethanone]: the IC50 came to 220 nM in assay [1], 740 nM in the assay with B16F10 cells, 630 nM in the assay with MOLM-13 cells and 470 nM with LAPC-4 cells.

On to `Cc1nnc2n1-c1ccccc1C(c1ccc(Cl)cc1)=CC2CC(=O)N1C2CCC1CC2` (centres unmarked) [Example 5, 1-(7-azabicyclo[2.2.1]hept-7-yl)-2-[6-(4-chlorophenyl)-1-methyl-4H-[1,2,4]triazolo[4,3-a][1]benzazepin-4-yl]ethanone], for which the IC50 in assay [1] was determined as 1400 nM; with B16F10 cells, 870 nM; in the assay on MOLM-13 cells it was 1120 nM; in the assay with LAPC-4 cells it was 620 nM.

In the case of `CCOC(=O)CC1C=C(c2cccc(Cl)c2)c2ccccc2-n2c(C)nnc21` (centres unmarked) [Example 7, ethyl [6-(3-chlorophenyl)-1-methyl-4H-[1,2,4]triazolo[4,3-a][1]benzazepin-4-yl]acetate], the IC50 in assay [1] stood at 230 nM; with B16F10 cells, 780 nM; with MOLM-13 cells it was 720 nM; in the assay on LAPC-4 cells, 750 nM.

Turning to `Cc1noc(CC2C=C(c3ccc(Cl)cc3)c3ccccc3-n3c(C)nnc32)n1` (centres unmarked) [Example 34, 6-(4-chlorophenyl)-1-methyl-4-[(3-methyl-1,2,4-oxadiazol-5-yl)methyl]-4H-[1,2,4]triazolo[4,3-a][1]benzazepine], the results for the IC50 (in assay [1]; in the assay on MOLM-13 cells) were 90 nM and 360 nM, respectively.

For `Cc1nnc(CC2C=C(c3ccc(Cl)cc3)c3ccccc3-n3c(C)nnc32)o1` (centres unmarked) [Example 39, 6-(4-chlorophenyl)-1-methyl-4-[(5-methyl-1,3,4-oxadiazol-2-yl)methyl]-4H-[1,2,4]triazolo[4,3-a][1]benzazepine], the IC50 came to 40 nM in assay [1] and 320 nM in the assay with MOLM-13 cells.

For the compound `Cc1nnc(CC2C=C(c3ccc(Cl)cc3)c3ccccc3-n3c(C)nnc32)s1` (centres unmarked) [Example 41, 6-(4-chlorophenyl)-1-methyl-4-[(5-methyl-1,3,4-thiadiazol-2-yl)methyl]-4H-[1,2,4]triazolo[4,3-a][1]benzazepine], the IC50 stood at 100 nM in assay [1], 720 nM in the assay on MOLM-13 cells and 410 nM in the assay on MOLP-8 cells.

As to `Cc1nnc2n1-c1ccccc1C(c1ccc(Cl)cc1)=CC2Cc1nnc(C2CC2)o1` (centres unmarked) [Example 43, 6-(4-chlorophenyl)-4-[(5-cyclopropyl-1,3,4-oxadiazol-2-yl)methyl]-1-methyl-4H-[1,2,4]triazolo[4,3-a][1]benzazepine], the IC50 was determined as 130 nM in assay [1], 370 nM with MOLM-13 cells and 210 nM in the assay on MOLP-8 cells.

For `Cc1nnc2n1-c1ccccc1C(c1ccc(Cl)cc1)=CC2Cc1nnc(-c2cccnc2)o1` (centres unmarked) [Example 44, 6-(4-chlorophenyl)-1-methyl-4-{[5-(pyridin-3-yl)-1,3,4-oxadiazol-2-yl]methyl}-4H-[1,2,4]triazolo[4,3-a][1]benzazepine], the IC50 in assay [1] turned out to be 90 nM; in the assay with MOLM-13 cells it was 420 nM; in the assay with MOLP-8 cells, 220 nM.

For `Cc1nc(CC2C=C(c3ccc(Cl)cc3)c3ccccc3-n3c(C)nnc32)no1` (centres unmarked) [Example 46, 6-(4-chlorophenyl)-1-methyl-4-[(5-methyl-1,2,4-oxadiazol-3-yl)methyl]-4H-[1,2,4]triazolo[4,3-a][1]benzazepine], the IC50 in assay [1] is 80 nM; in the assay on MOLM-13 cells, 270 nM; in the assay on MOLP-8 cells, 140 nM.

For `COc1ccc2c(c1)C(c1ccc(Cl)cc1)=CC(Cc1nnc(C)o1)c1nnc(C)n1-2` (centres unmarked) [Example 47, 6-(4-chlorophenyl)-8-methoxy-1-methyl-4-[(5-methyl-1,3,4-oxadiazol-2-yl)methyl]-4H-[1,2,4]triazolo[4,3-a][1]benzazepine], the IC50 in assay [1] was 50 nM; in the assay with MOLM-13 cells, 150 nM; in the assay with MOLP-8 cells it was 90 nM.

Take `Cc1nnc(CC2C=C(c3ccc(Cl)cc3)c3cc(-c4c(C)noc4C)ccc3-n3c(C)nnc32)o1` (centres unmarked) [Example 48, 6-(4-chlorophenyl)-8-(3,5-dimethyl-1,2-oxazol-4-yl)-1-methyl-4-[(5-methyl-1,3,4-oxadiazol-2-yl)methyl]-4H-[1,2,4]triazolo[4,3-a][1]benzazepine]: the IC50 came out at 340 nM in assay [1], 1380 nM in the assay with MOLM-13 cells and 1620 nM in the assay on MOLP-8 cells.

As a reminder, the IC50 is the concentration that inhibits the measured activity by half. A low value points to inhibition by little substance.
